Data from ChEMBL document CHEMBL5113442, “Discovery of agonist-antagonist pairs for the modulation of Ca [2]+ and voltage-gated K+ channels of large conductance that contain beta1 subunits” (Bioorg Med Chem, 2022).
The source made the active and inactive calls. No cut-off for these calls is given here.

Assays:
Format in all cases: cell-based
CHO [1] = test: Agonist activity at rat BK calcium channel alphabeta1 expressed in CHO cells assessed as fold increase in current amplitude at 0.0001 to 33.3 uM by automated whole cell patch clamp analysis; conditions: filed as agonist, dose 0.0001-33.3 µM
CHO [2] = test: Agonist activity at rat BK calcium channel alphabeta1 expressed in CHO cells assessed as maximal current amplitude by automated whole cell patch clamp analysis; conditions: filed as agonist
[3] = Agonist activity at rat BK calcium channel alphabeta1 expressed in CHO cells assessed as increase in current amplitude by automated whole cell patch clamp analysis
CHO [4] = test: Antagonist activity at rat BK calcium channel alphabeta1 expressed in CHO cells assessed as fold change in current amplitude at 3 uM in presence of compound 1 by automated whole cell patch clamp analysis; conditions: filed as antagonist
CHO [5] = test: Antagonist activity at rat BK calcium channel alphabeta1 expressed in CHO cells assessed as decrease in current amplitude at 0.1 to 1 uM in presence of compound 1 by automated whole cell patch clamp analysis; conditions: filed as antagonist, dose 0.1-1 µM
CHO [6] = test: Antagonist activity at rat BK calcium channel alphabeta1 expressed in CHO cells assessed as fold change in current amplitude at 1 uM in presence of compound 1 by automated whole cell patch clamp analysis; conditions: filed as antagonist

| SMILES | fold change (FC) (CHO [1]) | ECmax (CHO [2]) | further results |
| --- | --- | --- | --- |
| O=C(NCc1ccc(F)cc1)c1nnc(/C(Cl)=C\c2cccc([N+](=O)[O-])c2)s1 | 1.73 |  |  |
| COc1ccc(C(=O)NC(=S)Nc2ccc(O)c(-c3nc4ccc(C)cc4o3)c2)cc1[N+](=O)[O-] | 2.47 | 0.21 µM |  |
| Cc1ccc(C(=O)NN2C(=O)/C(=C\c3ccc(OC(=O)c4cccc([N+](=O)[O-])c4)cc3)SC2=S)cc1 | 2.47 |  |  |
| CCOC(=O)c1c(NC(=O)[C@H](C)Sc2nnc(CNC(=O)c3ccc(C)c([N+](=O)[O-])c3)n2CCc2ccccc2)sc2c1CCC2 | 1.84 | 0.14 µM |  |
| O=C(Nc1ccc(F)cc1)c1nnc(/C(Cl)=C\c2cccc([N+](=O)[O-])c2)s1 |  | 0.72 µM | EC50 [3]: 5 nM |
| O=C1NC(=O)N(c2ccc(F)cc2)C(=O)/C1=C/c1cc(Br)ccc1OCc1cccc([N+](=O)[O-])c1 |  | 1.05 µM | EC50 [3]: 20 nM |
| COc1cc(/C=C2/C(=O)NC(=O)N(c3ccccc3)C2=O)cc(Br)c1OCc1ccc([N+](=O)[O-])cc1 | 4.07 | 0.35 µM |  |
| O=C(Nc1ccccc1)c1nnc(/C(Cl)=C\c2cccc([N+](=O)[O-])c2)s1 | 4.05 | 0.44 µM |  |
| CC[C@@H](C)NS(=O)(=O)c1cc([N+](=O)[O-])ccc1Oc1c(C)c(C(=O)NC[C@@H]2CCCO2)nn1-c1cccc(C)c1C |  | 0.42 µM | EC50 [3]: 2 nM |
| Cc1n[nH]c(C)c1CCc1nc2c3ccccc3nc(SCc3ccc([N+](=O)[O-])cc3)n2n1 | 1.23 | 0.25 µM | fold change (FC) (CHO [4]): 2; Activity (CHO [5]): Active; fold change (FC) (CHO [6]): 2.2 |
| O=C(Cc1ccc([N+](=O)[O-])cc1)NC[C@H](c1ccccc1Cl)c1c[nH]c2ccccc12 | 2.51 |  |  |
| COc1ccc([N+](=O)[O-])cc1/N=c1\ssc2c1-c1cc(C)c(C)cc1NC2(C)C | 3.86 |  |  |
| C/C(=C/C(=O)C[C@H](C)C(=O)O)[C@@H]1CC(=O)[C@@]2(C)C3=C(C(=O)C[C@]12C)[C@@]1(C)CCC(=O)C(C)(C)[C@@H]1C[C@@H]3O |  | 0.78 µM | EC50 [3]: 20 nM |
| C/C(=N\Nc1ccc([N+](=O)[O-])cc1S(=O)(=O)Nc1ccccc1Cl)c1ccc2ccccc2c1O | 4.05 | 0.38 µM |  |
| COc1ccc(NC(=O)/C(=C\c2cccc([N+](=O)[O-])c2)NC(=O)c2ccc(F)cc2Cl)cc1OC | 1.94 | 0.15 µM |  |
